# What was measured:
# blackgrass = test: Test A postemergence; assay type: in vivo, Alopecurus myosuroides
# Summary of the method: (§1)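 Scoring: eye-based comparison with untreated controls, 0 for no effect through 100 for complete control, at about day 10. Treatments: directed soil spray preemergence; foliar spray postemergence on 2–10 cm plants at the one- to two-leaf stage. Medium: loam soil with sand.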
# corn = test: Test A postemergence; assay type: in vivo, Zea mays
# Summary of the method: as §1
# kochia [1] = test: Test A preemergence; assay type: in vivo, Kochia scoparia; conditions: for Kochia plant response rating (0 to 100 scale): 31 g ai/ha; for Plant response rating, Kochia: 125 g ai/ha
# Summary of the method: as §1
# giant foxtail [2] = test: Test A preemergence; assay type: in vivo, Setaria faberii; conditions: for Foxtail, Giant plant response rating (0 to 100 scale): 31 g ai/ha; for Plant response rating, Foxtail, Giant: 125 g ai/ha
# Summary of the method: as §1
# barnyardgrass [3] = test: Test B flooded paddy test; assay type: in vivo, Echinochloa crus-galli; conditions: Flood, 250 g ai/ha; 0 to 100 scale where 0 is no effect and 100 is complete control
# Summary of the method: (§2)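 Evaluation is visual, against untreated controls, 13 to 15 days after treatment. Before treatment, plants reached the 2-leaf stage; pots were then flooded 3 cm deep, compound was added to the water, and that level was maintained. Ratings run 0 to 100, with 100 meaning complete control.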
# ragweed [4] = test: Test A postemergence; assay type: in vivo, Ambrosia elatior; conditions: for Ragweed plant response rating: 125 g ai/ha
# Summary of the method: as §1
# barnyardgrass [5] = test: Test A preemergence; assay type: in vivo, Echinochloa crus-galli; conditions: for Barnyardgrass plant response rating (0 to 100 scale): 31 g ai/ha; for Plant response rating, Barnyardgrass: 125 g ai/ha
# Summary of the method: as §1
# sedge, umbrella = test: Test B flooded paddy test; assay type: in vivo, Cyperus difformis; conditions: Flood, 250 g ai/ha; 0 to 100 scale where 0 is no effect and 100 is complete control
# Summary of the method: as §2
# pigweed [6] = test: Test A postemergence; assay type: in vivo, Amaranthus retroflexus; conditions: for Pigweed plant response rating: 125 g ai/ha
# Summary of the method: as §1
# ragweed [7] = test: Test A preemergence; assay type: in vivo, Ambrosia elatior; conditions: for Ragweed plant response rating (0 to 100 scale): 31 g ai/ha; for Plant response rating, Ragweed: 125 g ai/ha
# Summary of the method: as §1
# Italian ryegrass [8] = test: Test A preemergence; assay type: in vivo, Lolium multiflorum; conditions: for Ryegrass, Italian plant response rating (0 to 100 scale): 31 g ai/ha; for Plant response rating, Ryegrass, Italian: 125 g ai/ha
# Summary of the method: as §1
# kochia [9] = test: Test A postemergence; assay type: in vivo, Kochia scoparia
# Summary of the method: as §1
# barnyardgrass [10] = test: Test A postemergence; assay type: in vivo, Echinochloa crus-galli
# Summary of the method: as §1
# giant foxtail [11] = test: Test A postemergence; assay type: in vivo, Setaria faberii
# Summary of the method: as §1
# rice = test: Test B flooded paddy test; assay type: in vivo, Oryza sativa; conditions: Flood, 250 g ai/ha; 0 to 100 scale where 0 is no effect and 100 is complete control
# Summary of the method: as §2
# pigweed [12] = test: Test A preemergence; assay type: in vivo, Amaranthus retroflexus; conditions: for Pigweed plant response rating (0 to 100 scale): 31 g ai/ha; for Plant response rating, Pigweed: 125 g ai/ha
# Summary of the method: as §1
# Italian ryegrass [13] = test: Test A postemergence; assay type: in vivo, Lolium multiflorum; conditions: for Ryegrass, Italian plant response rating: 125 g ai/ha
# Summary of the method: as §1
# wheat = test: Test A postemergence; assay type: in vivo, Triticum aestivum; conditions: for Wheat plant response rating: 125 g ai/ha
# Summary of the method: as §1
# Heteranthera limosa = test: Test B flooded paddy test; assay type: in vivo; conditions: Flood, 250 g ai/ha; 0 to 100 scale where 0 is no effect and 100 is complete control
# Summary of the method: as §2
# galium = test: Test A postemergence; assay type: in vivo, Galium aparine
# Summary of the method: as §1
# [14] = 31 g ai/ha, 0 to 100 scale, 0 no effect, 100 complete control
# [15] = 125 g ai/ha, 0 to 100 scale where 0 is no effect and 100 is complete control
# [16] = 0 to 100 scale where 0 is no effect and 100 is complete control
# [17] = 500 g ai/ha, 0 to 100 scale where 0 is no effect and 100 is complete control
smiles,measurement,setting,value
Fc1cnc(Oc2cccc(F)c2-n2cc(OCC(F)(F)F)cn2)nc1 [Compound 126],"Plant response rating, Blackgrass",blackgrass; [14],10
same,Blackgrass plant response rating,blackgrass; [15],20
same,"Plant response rating, Corn",corn; [14],0
same,Corn plant response rating,corn; [15],20
same,Kochia plant response rating (0 to 100 scale),kochia [1],40
same,"Plant response rating, Kochia",kochia [1]; [16],90
same,"Foxtail, Giant plant response rating (0 to 100 scale)",giant foxtail [2],50
same,"Plant response rating, Foxtail, Giant",giant foxtail [2]; [16],100
same,"Plant response rating, Barnyardgrass",barnyardgrass [3],0
same,"Plant response rating, Ragweed",ragweed [4]; [14],10
same,Ragweed plant response rating,ragweed [4]; [16],50
same,Barnyardgrass plant response rating (0 to 100 scale),barnyardgrass [5],10
same,"Plant response rating, Barnyardgrass",barnyardgrass [5]; [16],80
same,"Plant response rating, Sedge, Umbrella","sedge, umbrella",20
same,"Plant response rating, Pigweed",pigweed [6]; [14],50
same,Pigweed plant response rating,pigweed [6]; [16],80
same,Ragweed plant response rating (0 to 100 scale),ragweed [7],0
same,"Plant response rating, Ragweed",ragweed [7]; [16],20
same,"Ryegrass, Italian plant response rating (0 to 100 scale)",Italian ryegrass [8],0
same,"Plant response rating, Ryegrass, Italian",Italian ryegrass [8]; [16],0
same,"Plant response rating, Kochia",kochia [9]; [14],40
same,Kochia plant response rating,kochia [9]; [15],100
same,"Plant response rating, Barnyardgrass",barnyardgrass [10]; [14],10
same,Barnyardgrass plant response rating,barnyardgrass [10]; [15],40
same,"Plant response rating, Foxtail, Giant",giant foxtail [11]; [14],10
same,"Foxtail, Giant plant response rating",giant foxtail [11]; [15],50
same,"Plant response rating, Rice",rice,0
same,Pigweed plant response rating (0 to 100 scale),pigweed [12],80
same,"Plant response rating, Pigweed",pigweed [12]; [16],100
same,"Plant response rating, Ryegrass, Italian",Italian ryegrass [13]; [14],0
same,"Ryegrass, Italian plant response rating",Italian ryegrass [13]; [16],10
same,"Plant response rating, Wheat",wheat; [14],0
same,Wheat plant response rating,wheat; [16],10
same,"Plant response rating, Ducksalad",Heteranthera limosa,65
same,"Plant response rating, Galium",galium; [14],20
same,Galium plant response rating,galium; [15],60
N#Cc1cccc(Oc2ncc(Cl)cn2)c1-n1cc(OCC(F)F)cn1 [Compound 99],"Plant response rating, Blackgrass",blackgrass; [14],50
same,"Plant response rating, Blackgrass",blackgrass; [15],90
same,"Plant response rating, Corn",corn; [14],20
same,"Plant response rating, Corn",corn; [15],90
same,Kochia plant response rating (0 to 100 scale),kochia [1],100
same,"Plant response rating, Kochia",kochia [1]; [16],100
same,"Foxtail, Giant plant response rating (0 to 100 scale)",giant foxtail [2],100
same,"Plant response rating, Foxtail, Giant",giant foxtail [2]; [16],100
same,"Plant response rating, Barnyardgrass",barnyardgrass [3],0
same,"Plant response rating, Ragweed",ragweed [4]; [14],30
same,Barnyardgrass plant response rating (0 to 100 scale),barnyardgrass [5],80
same,"Plant response rating, Barnyardgrass",barnyardgrass [5]; [16],90
same,"Plant response rating, Sedge, Umbrella","sedge, umbrella",0
same,"Plant response rating, Pigweed",pigweed [6]; [14],100
same,Ragweed plant response rating (0 to 100 scale),ragweed [7],70
same,"Plant response rating, Ragweed",ragweed [7]; [16],90
same,"Ryegrass, Italian plant response rating (0 to 100 scale)",Italian ryegrass [8],0
same,"Plant response rating, Ryegrass, Italian",Italian ryegrass [8]; [16],30
same,"Plant response rating, Kochia",kochia [9]; [14],100
same,"Plant response rating, Kochia",kochia [9]; [15],100
same,"Plant response rating, Barnyardgrass",barnyardgrass [10]; [14],100
same,"Plant response rating, Barnyardgrass",barnyardgrass [10]; [15],100
same,"Plant response rating, Foxtail, Giant",giant foxtail [11]; [14],90
same,"Plant response rating, Foxtail, Giant",giant foxtail [11]; [15],100
same,"Plant response rating, Rice",rice,0
same,Pigweed plant response rating (0 to 100 scale),pigweed [12],100
same,"Plant response rating, Pigweed",pigweed [12]; [16],100
same,"Plant response rating, Ryegrass, Italian",Italian ryegrass [13]; [14],20
same,"Plant response rating, Wheat",wheat; [14],50
same,"Plant response rating, Ducksalad",Heteranthera limosa,0
same,"Plant response rating, Galium",galium; [14],90
same,"Plant response rating, Galium",galium; [15],100
CS(=O)(=O)c1cccc(Oc2ncc(Cl)cn2)c1-n1cc(Br)cn1 [Compound 142],Blackgrass plant response rating,blackgrass; [15],0
same,"Plant response rating, Blackgrass",blackgrass; [17],0
same,Corn plant response rating,corn; [15],0
same,"Plant response rating, Corn",corn; [17],0
same,"Plant response rating, Kochia",kochia [1]; [16],0
same,Kochia plant response rating,kochia [1]; [17],50
same,"Plant response rating, Foxtail, Giant",giant foxtail [2]; [16],0
same,"Foxtail, Giant plant response rating",giant foxtail [2]; [17],0
same,"Plant response rating, Barnyardgrass",barnyardgrass [3],0
same,Ragweed plant response rating,ragweed [4]; [16],0
same,"Plant response rating, Ragweed",ragweed [4]; [17],0
same,"Plant response rating, Barnyardgrass",barnyardgrass [5]; [16],0
same,Barnyardgrass plant response rating,barnyardgrass [5]; [17],0
same,"Plant response rating, Sedge, Umbrella","sedge, umbrella",0
same,Pigweed plant response rating,pigweed [6]; [16],0
same,"Plant response rating, Pigweed",pigweed [6]; [17],0
same,"Plant response rating, Ragweed",ragweed [7]; [16],0
same,Ragweed plant response rating,ragweed [7]; [17],20
same,"Plant response rating, Ryegrass, Italian",Italian ryegrass [8]; [16],0
same,"Ryegrass, Italian plant response rating",Italian ryegrass [8]; [17],0
same,Kochia plant response rating,kochia [9]; [15],0
same,"Plant response rating, Kochia",kochia [9]; [17],70
same,Barnyardgrass plant response rating,barnyardgrass [10]; [15],0
same,"Plant response rating, Barnyardgrass",barnyardgrass [10]; [17],0
same,"Foxtail, Giant plant response rating",giant foxtail [11]; [15],0
same,"Plant response rating, Foxtail, Giant",giant foxtail [11]; [17],0
same,"Plant response rating, Rice",rice,0
same,"Plant response rating, Pigweed",pigweed [12]; [16],0
same,Pigweed plant response rating,pigweed [12]; [17],0
same,"Ryegrass, Italian plant response rating",Italian ryegrass [13]; [16],0
same,"Plant response rating, Ryegrass, Italian",Italian ryegrass [13]; [17],0
same,Wheat plant response rating,wheat; [16],0
same,"Plant response rating, Wheat",wheat; [17],0
same,"Plant response rating, Ducksalad",Heteranthera limosa,0
same,Galium plant response rating,galium; [15],0
same,"Plant response rating, Galium",galium; [17],0
